PMC4150021 (Nature, 2014)

Tested on: PANC1 cells
Experiment: Colony formation / growth, PANC1
Assay type: cell-based, human
Details: data not shown

Nc1ncnc2nc(-c3ccc(N4CCOCC4)nc3)cc(-c3cccc(Br)c3)c12 [ABT-702]
growth impairment of PANC1 cells: did not observe any growth impairment
